# From ChEMBL document CHEMBL4417634, “DNA2 inhibitors for cancer treatment” (2018)
# Active and inactive are the calls of the source. The rule behind the calls is not given here.
# Assays:
# [1] = system: Saccharomyces cerevisiae; experiment: Potentiation of DNA damaging agent methyl methane sulfonate-induced cytotoxicity in yeast cells deficient in rad27 by dilution assay; assay type: functional, organism-based
# [2] = system: Saccharomyces cerevisiae; experiment: Potentiation of high temperature-induced cytotoxicity in yeast cells deficient in rad27 by dilution assay; assay type: functional, organism-based
# [3] = system: Saccharomyces cerevisiae; experiment: Potentiation of DNA damaging agent methyl methane sulfonate-induced cytotoxicity in yeast cells by dilution assay; assay type: functional, organism-based
# [4] = system: Saccharomyces cerevisiae; experiment: Potentiation of high temperature-induced cytotoxicity in yeast cells by dilution assay; assay type: functional, organism-based
# [5] = species: Homo sapiens; experiment: Suppression of 125 nM cisplatin-induced cytotoxicity in FANCD2 (-/-) human PD20 cells assessed as increase in cell survival at 10 uM; assay type: functional, cell-based
# [6] = system: MCF-10A; experiment: Cytotoxicity against human MCF10A cells assessed as reduction in cell viability incubated for 7 days; assay type: cell-based; settings: 168 h
# [7] = system: HCT-116; experiment: Cytotoxicity against human HCT116 cells assessed as reduction in cell viability at 10 to 10000 nM in presence of siFEN1 by tryphan blue staining based assay; assay type: functional
# [8] = system: WiDr; experiment: Cytotoxicity against human WiDr cells assessed as reduction in cell viability incubated for 7 days; assay type: functional, cell-based; settings: 168 h
# [9] = system: HT-29; experiment: Cytotoxicity against human HT-29 cells assessed as reduction in cell viability incubated for 7 days; assay type: functional, cell-based; settings: HT-29, 168 h
# [10] = system: HCT-116; experiment: Cytotoxicity against human HCT116 cells assessed as reduction in cell viability at 10 to 10000 nM in presence of siMRE11 by tryphan blue staining based assay; assay type: functional
# [11] = system: MDA-MB-231; experiment: Cytotoxicity against human MDA-MB-231 cells assessed as reduction in cell viability incubated for 7 days; assay type: functional, cell-based; settings: MDA-MB-231, 168 h
# [12] = system: FHC; experiment: Cytotoxicity against human FHC cells assessed as reduction in cell viability incubated for 7 days; assay type: cell-based; settings: 168 h
# [13] = system: A549; experiment: Cytotoxicity against human A549 cells assessed as reduction in cell viability incubated for 7 days; assay type: functional, cell-based; settings: A549, 168 h
# [14] = system: HCT-116; experiment: Cytotoxicity against human HCT116 cells assessed as reduction in cell viability at 10 to 10000 nM in presence of siEXO1 by tryphan blue staining based assay; assay type: functional
# [15] = system: LNCaP C4-2; experiment: Cytotoxicity against human C4-2 cells assessed as reduction in cell viability incubated for 7 days; assay type: functional, cell-based; settings: LNCaP C4-2, 168 h
# [16] = system: HCT-116; experiment: Cell cycle arrest in human HCT116 cells assessed as accumulation at S phase at 10 uM incubated for 48 hrs by propidium iodide staining based flow cytometry (reference value: […]); assay type: functional
# [17] = system: HCT-116; experiment: Cell cycle arrest in human HCT116 cells assessed as accumulation at S phase at 50 uM incubated for 48 hrs by propidium iodide staining based flow cytometry (reference value: […]); assay type: functional
# [18] = system: DLD-1; experiment: Cytotoxicity against human DLD1 cells assessed as reduction in cell viability incubated for 7 days; assay type: functional, cell-based; settings: DLD-1, 168 h
# [19] = system: IMR-90; experiment: Cytotoxicity against human IMR90 cells assessed as reduction in cell viability incubated for 7 days; assay type: cell-based; settings: IMR-90, 168 h
# [20] = system: PC-3; experiment: Cytotoxicity against human PC3 cells assessed as reduction in cell viability incubated for 7 days; assay type: functional, cell-based; settings: PC-3, 168 h
# [21] = system: MCF7; experiment: Cytotoxicity against human MCF7 cells assessed as reduction in cell viability incubated for 7 days; assay type: functional, cell-based; settings: MCF7, 168 h
# [22] = system: MCF7; experiment: Cytotoxicity against human MCF7 cells transfected with shDNA2 assessed as cell survival relative to control; assay type: functional, cell-based
# [23] = system: U2OS; experiment: Induction of single-stranded DNA accumulation in human U2OS cells assessed as reduction in P-RPA foci at 20 uM; assay type: functional, cell-based
# [24] = system: HCT-116; experiment: Cell cycle arrest in human HCT116 cells assessed as accumulation at G1 phase at 10 uM incubated for 48 hrs by propidium iodide staining based flow cytometry (reference value: 76.2%); assay type: functional
# [25] = target: Exonuclease 1 (Homo sapiens) (UniProt Q9UQ84)
# Exonuclease 1 (Homo sapiens), sequence (Q9UQ84 whole entry): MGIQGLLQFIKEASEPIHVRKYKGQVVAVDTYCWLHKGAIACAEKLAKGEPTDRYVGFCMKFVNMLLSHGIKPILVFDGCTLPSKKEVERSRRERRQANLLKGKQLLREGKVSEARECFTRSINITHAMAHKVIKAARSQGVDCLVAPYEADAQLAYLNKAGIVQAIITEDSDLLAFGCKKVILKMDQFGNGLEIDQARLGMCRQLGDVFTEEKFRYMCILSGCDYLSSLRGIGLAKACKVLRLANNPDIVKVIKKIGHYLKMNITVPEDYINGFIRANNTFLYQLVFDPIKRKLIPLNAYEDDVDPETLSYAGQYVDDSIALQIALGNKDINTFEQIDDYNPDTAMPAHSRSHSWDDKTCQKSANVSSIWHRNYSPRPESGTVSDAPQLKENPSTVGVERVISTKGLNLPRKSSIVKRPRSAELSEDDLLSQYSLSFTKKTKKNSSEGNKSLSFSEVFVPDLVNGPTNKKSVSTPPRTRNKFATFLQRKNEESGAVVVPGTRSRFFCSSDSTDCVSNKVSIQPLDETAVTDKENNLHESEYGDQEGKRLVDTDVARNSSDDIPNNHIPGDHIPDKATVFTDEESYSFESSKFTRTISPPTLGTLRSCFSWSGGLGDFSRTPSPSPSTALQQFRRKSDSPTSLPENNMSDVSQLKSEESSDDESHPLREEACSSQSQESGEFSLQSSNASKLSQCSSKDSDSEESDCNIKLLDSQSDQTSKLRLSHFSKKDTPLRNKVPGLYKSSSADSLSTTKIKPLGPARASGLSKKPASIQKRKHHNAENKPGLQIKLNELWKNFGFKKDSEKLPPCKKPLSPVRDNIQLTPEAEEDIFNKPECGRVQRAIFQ
# [26] = species: Mus musculus; experiment: Cytotoxicity against dna2 (-/-) mouse MES cells assessed as cell survival relative to control; assay type: functional, cell-based
# [27] = system: HCT-116; experiment: Cell cycle arrest in human HCT116 cells assessed as accumulation at G2/M phase at 10 uM incubated for 48 hrs by propidium iodide staining based flow cytometry (reference value: […]); assay type: functional
# [28] = target: Flap endonuclease 1 (Homo sapiens) (UniProt P39748)
# Flap endonuclease 1 (Homo sapiens), sequence (P39748 whole entry): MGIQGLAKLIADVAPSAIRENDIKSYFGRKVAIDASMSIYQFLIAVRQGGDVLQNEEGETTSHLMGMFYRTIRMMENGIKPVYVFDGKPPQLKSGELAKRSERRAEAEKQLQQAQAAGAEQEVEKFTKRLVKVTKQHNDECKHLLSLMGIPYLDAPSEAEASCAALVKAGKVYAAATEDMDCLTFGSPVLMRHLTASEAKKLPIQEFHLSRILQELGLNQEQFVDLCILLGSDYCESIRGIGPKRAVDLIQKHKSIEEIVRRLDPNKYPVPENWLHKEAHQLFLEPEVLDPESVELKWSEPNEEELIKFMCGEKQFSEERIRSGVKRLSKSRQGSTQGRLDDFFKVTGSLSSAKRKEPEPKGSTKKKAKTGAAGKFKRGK
# [29] = system: HCT-116; experiment: Cell cycle arrest in human HCT116 cells assessed as accumulation at G2/M phase at 50 uM incubated for 48 hrs by propidium iodide staining based flow cytometry (reference value: […]); assay type: functional
# [30] = system: CWR22R; experiment: Cytotoxicity against human 22Rv1 cells assessed as reduction in cell viability incubated for 7 days; assay type: functional, cell-based; settings: 22Rv1, 168 h
# [31] = system: NCI-H460; experiment: Cytotoxicity against human NCI-H460 cells assessed as reduction in cell viability incubated for 7 days; assay type: functional, cell-based; settings: NCI-H460, 168 h
# [32] = Cytotoxicity against human CWRR1 cells assessed as reduction in cell viability incubated for 7 days; assay type: functional, cell-based; settings: 168 h
# [33] = system: RWPE-1; experiment: Cytotoxicity against human RWPE1 cells assessed as reduction in cell viability incubated for 7 days; assay type: cell-based; settings: RWPE-1, 168 h
# [34] = system: HCT-8; experiment: Cytotoxicity against human HCT8 cells assessed as reduction in cell viability incubated for 7 days; assay type: functional, cell-based; settings: HCT-8, 168 h
# [35] = system: HCT-116; experiment: Cell cycle arrest in human HCT116 cells assessed as accumulation at G1 phase at 50 uM incubated for 48 hrs by propidium iodide staining based flow cytometry (reference value: 76.2%); assay type: functional
# [36] = system: HCT-116; experiment: Cytotoxicity against human HCT116 cells assessed as reduction in cell viability incubated for 7 days; assay type: functional, cell-based; settings: HCT-116, 168 h
# [37] = system: NCI-H2030; experiment: Cytotoxicity against human NCI-H2030 cells assessed as reduction in cell viability incubated for 7 days; assay type: functional, cell-based; settings: NCI-H2030, 168 h
# [38] = system: U2OS; experiment: Induction of single-stranded DNA accumulation in human U2OS cells assessed as reduction in P-RPA foci at 50 uM; assay type: functional, cell-based
structure (smiles),measurement,setting,value
CCCCNC(=O)c1c[nH]c2c([N+](=O)[O-])cccc2c1=O,Activity,[1],Active
same,Activity,[2],Active
same,Activity,[3],inactive
same,Activity,[4],inactive
O=C(O)c1cnc2c([N+](=O)[O-])cccc2c1O,Activity,[1],Active
same,Activity,[5],Active
same,IC50,[6],24.4 µM
same,Activity,[7],Active
same,IC50,[8],52.6 µM
same,IC50,[9],40.5 µM
same,Activity,[10],Active
same,Activity,[2],Active
same,IC50,[11],46.8 µM
same,IC50,[12],75.2 µM
same,IC50,[13],23.6 µM
same,Activity,[3],inactive
same,Activity,[4],inactive
same,Activity,[14],Active
same,IC50,[15],19.7 µM
same,Activity,[16],13%
same,Activity,[17],17.2%
same,IC50,[18],25.1 µM
same,IC50,[19],95.5 µM
same,IC50,[20],20.9 µM
same,IC50,[21],7.2 µM
same,Activity,[22],Active
same,Activity,[23],inactive
same,Activity,[24],66.9%
same,inhibition,[25],inactive
same,Activity,[26],Active
same,Activity,[27],12.6%
same,inhibition,[28],inactive
same,Activity,[29],28.1%
same,IC50,[30],11.8 µM
same,IC50,[31],43.7 µM
same,IC50,[32],15.7 µM
same,IC50,[33],78.8 µM
same,IC50,[34],27.5 µM
same,Activity,[35],54.1%
same,IC50,[36],24.2 µM
same,IC50,[37],17.7 µM
N=C1NC(=O)/C(=C/c2ccc(O)cc2)S1,Activity,[38],inactive
